Test in all cases: radiometric kinase profiling (33 PanQinase)
Common to all, as to format: biochemical

One assay concerns the target T1, MAPK9 (Homo sapiens, UniProt P45984).
T1 construct: purchased ProQinase (33PanQinase Activity Assay)
Particulars: read-out: Inhibitory effect (%) MAPK9. The method, then: (§1) The kinase inhibition profile of the compounds was determined by testing 96 protein kinases’ activity using a radiometric protein kinase assay (33 PanQinase® Activity Assay, Proqinase, Germany). In brief, 10 µL of non-radioactive ATP solution (in H2O), 25 µL of assay buffer/[γ-33 P]-ATP mixture, 5 µL of 0.1 μM the tested compound in 10% DMSO and 10 µL of enzyme/substrate were mixed in 96-well FlashPlatesTM (Perkin Elmer, Boston, MA, USA). The reaction was conducted at 30 °C for 60 min. To stop the reaction, 50 µL of 2% (v/v) H3PO4 was added into the protein kinase reaction cocktails. After which, with 200 µL 0.9% (w/v) NaCl twice, the incorporation of ^33 Pi (counting of “cpm”) was determined with a microplate scintillation counter (Wallac Microbeta, Boston, MA, USA). All protein kinase assays were performed using a BeckmanCoulter Biomek 2000/SL robotic system (Brea, CA, USA). The residual activity (in %) for each compound was normalized to 100% enzyme activity (untreated control) and background (negative control).

In another assay the target is T2, KDR (Homo sapiens, UniProt P35968).
T2 construct: purchased ProQinase (33PanQinase Activity Assay)
T2 sequence (P35968 20-1356): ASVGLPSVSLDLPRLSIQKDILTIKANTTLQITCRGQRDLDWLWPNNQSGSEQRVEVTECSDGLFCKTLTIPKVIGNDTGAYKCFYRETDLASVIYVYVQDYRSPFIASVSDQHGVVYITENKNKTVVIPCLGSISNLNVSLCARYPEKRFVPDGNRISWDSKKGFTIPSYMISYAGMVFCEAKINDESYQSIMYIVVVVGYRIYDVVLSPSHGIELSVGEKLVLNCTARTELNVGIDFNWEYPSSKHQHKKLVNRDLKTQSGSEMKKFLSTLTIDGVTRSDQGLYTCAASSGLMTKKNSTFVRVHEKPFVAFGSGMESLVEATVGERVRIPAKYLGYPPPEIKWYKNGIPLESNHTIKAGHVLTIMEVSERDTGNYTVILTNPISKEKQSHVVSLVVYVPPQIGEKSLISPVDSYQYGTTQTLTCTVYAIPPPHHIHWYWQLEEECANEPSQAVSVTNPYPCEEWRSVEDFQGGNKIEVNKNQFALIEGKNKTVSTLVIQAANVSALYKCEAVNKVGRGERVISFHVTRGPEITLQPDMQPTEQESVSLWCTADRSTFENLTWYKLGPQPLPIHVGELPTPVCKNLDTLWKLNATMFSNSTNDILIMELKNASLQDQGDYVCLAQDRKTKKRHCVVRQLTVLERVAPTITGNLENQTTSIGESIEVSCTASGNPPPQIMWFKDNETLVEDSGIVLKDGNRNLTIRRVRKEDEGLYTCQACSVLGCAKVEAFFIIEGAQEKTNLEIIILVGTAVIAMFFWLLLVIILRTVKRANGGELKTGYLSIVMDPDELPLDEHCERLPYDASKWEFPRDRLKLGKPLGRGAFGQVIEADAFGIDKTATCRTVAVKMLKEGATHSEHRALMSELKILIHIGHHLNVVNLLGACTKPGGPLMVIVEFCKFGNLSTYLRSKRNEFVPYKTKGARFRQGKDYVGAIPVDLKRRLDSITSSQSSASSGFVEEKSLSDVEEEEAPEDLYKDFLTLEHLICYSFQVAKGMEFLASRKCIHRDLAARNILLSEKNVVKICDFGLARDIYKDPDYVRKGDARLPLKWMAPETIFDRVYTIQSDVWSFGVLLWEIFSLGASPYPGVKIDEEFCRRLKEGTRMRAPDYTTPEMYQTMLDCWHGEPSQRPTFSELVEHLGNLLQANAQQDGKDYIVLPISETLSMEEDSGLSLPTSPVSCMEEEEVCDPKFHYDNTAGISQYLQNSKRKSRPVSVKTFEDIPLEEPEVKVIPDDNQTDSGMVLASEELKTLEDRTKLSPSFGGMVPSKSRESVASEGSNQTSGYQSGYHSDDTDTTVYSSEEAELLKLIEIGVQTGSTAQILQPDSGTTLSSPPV
Particulars: read-out: Inhibitory effect (%) KDR. The method, then:
as §1

The target of the next assay is T3, JAK2 (Homo sapiens, UniProt O60674).
T3 construct: purchased ProQinase (33PanQinase Activity Assay)
Particulars: read-out: Inhibitory effect (%) JAK2. The method, then:
as §1

Another assay concerns the target T4, CDK9_cyclinT1 (Homo sapiens, UniProt P50750).
T4 construct: purchased Proqinase, Germany
Particulars: read-out: Inhibitory effect (%) CDK9_cyclinT1. As to the method:
as §1

The next assay deals with T5, DNAPK (Homo sapiens, UniProt P78527).
T5 construct: purchased Proqinase, Germany
The conditions noted are these: read-out: Inhibitory effect (%) DNAPK. As to the method:
as §1

Another assay addresses T6, MAPKAPK2 (Homo sapiens, UniProt P49137).
T6 construct: purchased ProQinase (33PanQinase Activity Assay)
The conditions noted are these: read-out: Inhibitory effect (%) MAPKAPK2. The method, then:
as §1

Another assay has as its target T7, EGFR (Homo sapiens, UniProt P00533).
T7 construct: purchased Proqinase, Germany
The conditions noted are these: read-out: Inhibitory effect (%) EGFR. As to the method:
as §1

In a further assay the target is T8, MAP3K5 (Homo sapiens, UniProt Q99683).
T8 construct: purchased ProQinase (33PanQinase Activity Assay)
T8 sequence (Q99683 1-1374): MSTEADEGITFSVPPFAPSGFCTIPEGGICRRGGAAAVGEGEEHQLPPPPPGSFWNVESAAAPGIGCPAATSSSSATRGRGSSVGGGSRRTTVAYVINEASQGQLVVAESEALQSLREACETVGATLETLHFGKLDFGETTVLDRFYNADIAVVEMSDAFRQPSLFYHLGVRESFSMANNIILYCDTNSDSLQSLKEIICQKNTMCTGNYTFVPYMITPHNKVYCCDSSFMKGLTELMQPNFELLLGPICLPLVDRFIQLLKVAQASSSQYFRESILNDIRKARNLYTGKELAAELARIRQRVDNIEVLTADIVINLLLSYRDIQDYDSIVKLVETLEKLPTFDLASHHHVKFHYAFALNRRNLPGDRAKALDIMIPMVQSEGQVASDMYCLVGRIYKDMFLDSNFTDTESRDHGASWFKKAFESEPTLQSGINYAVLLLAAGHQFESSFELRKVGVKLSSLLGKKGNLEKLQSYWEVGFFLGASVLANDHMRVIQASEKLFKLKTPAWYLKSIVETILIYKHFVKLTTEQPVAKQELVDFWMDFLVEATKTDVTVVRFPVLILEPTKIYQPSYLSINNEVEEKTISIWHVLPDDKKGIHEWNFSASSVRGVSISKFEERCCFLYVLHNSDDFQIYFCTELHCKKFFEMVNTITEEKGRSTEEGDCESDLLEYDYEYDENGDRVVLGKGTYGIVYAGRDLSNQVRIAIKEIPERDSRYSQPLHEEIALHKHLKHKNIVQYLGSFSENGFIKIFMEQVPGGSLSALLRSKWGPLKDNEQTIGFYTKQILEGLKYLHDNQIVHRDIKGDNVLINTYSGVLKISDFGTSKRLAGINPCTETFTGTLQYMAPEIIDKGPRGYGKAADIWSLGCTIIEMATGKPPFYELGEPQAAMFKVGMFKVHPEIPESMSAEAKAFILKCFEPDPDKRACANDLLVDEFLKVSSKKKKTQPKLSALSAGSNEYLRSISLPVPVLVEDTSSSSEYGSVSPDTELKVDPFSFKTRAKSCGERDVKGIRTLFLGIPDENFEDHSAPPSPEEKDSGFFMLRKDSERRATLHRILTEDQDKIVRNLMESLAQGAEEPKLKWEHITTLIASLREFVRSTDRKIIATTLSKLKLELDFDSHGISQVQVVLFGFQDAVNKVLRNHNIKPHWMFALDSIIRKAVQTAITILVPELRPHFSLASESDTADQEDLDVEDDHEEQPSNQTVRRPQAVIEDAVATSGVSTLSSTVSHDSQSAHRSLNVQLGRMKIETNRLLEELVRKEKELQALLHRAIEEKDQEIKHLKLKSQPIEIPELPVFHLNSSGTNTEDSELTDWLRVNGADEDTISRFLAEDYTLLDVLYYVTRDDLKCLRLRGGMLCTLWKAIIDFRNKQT
The conditions noted are these: read-out: Inhibitory effect (%) MAP3K5. As to the method:
as §1

The target of the next assay is T9, PAK2 (Homo sapiens, UniProt Q13177).
T9 construct: purchased ProQinase (33PanQinase Activity Assay)
Particulars: read-out: Inhibitory effect (%) PAK2. The method, then: as §1

The next assay has as its target T10, GSK3B (Homo sapiens, UniProt P49841).
T10 construct: purchased ProQinase (33PanQinase Activity Assay)
Particulars: read-out: Inhibitory effect (%) GSK3B. The method, then:
as §1

The next assay concerns the target T11, BTK (Homo sapiens, UniProt Q06187).
T11 construct: purchased Proqinase, Germany
The conditions noted are these: read-out: Inhibitory effect (%) BTK. As to the method:
as §1

The target of another assay is T12, IGF1R (Homo sapiens, UniProt P08069).
T12 construct: purchased ProQinase (33PanQinase Activity Assay)
T12 sequence (P08069 31-1367): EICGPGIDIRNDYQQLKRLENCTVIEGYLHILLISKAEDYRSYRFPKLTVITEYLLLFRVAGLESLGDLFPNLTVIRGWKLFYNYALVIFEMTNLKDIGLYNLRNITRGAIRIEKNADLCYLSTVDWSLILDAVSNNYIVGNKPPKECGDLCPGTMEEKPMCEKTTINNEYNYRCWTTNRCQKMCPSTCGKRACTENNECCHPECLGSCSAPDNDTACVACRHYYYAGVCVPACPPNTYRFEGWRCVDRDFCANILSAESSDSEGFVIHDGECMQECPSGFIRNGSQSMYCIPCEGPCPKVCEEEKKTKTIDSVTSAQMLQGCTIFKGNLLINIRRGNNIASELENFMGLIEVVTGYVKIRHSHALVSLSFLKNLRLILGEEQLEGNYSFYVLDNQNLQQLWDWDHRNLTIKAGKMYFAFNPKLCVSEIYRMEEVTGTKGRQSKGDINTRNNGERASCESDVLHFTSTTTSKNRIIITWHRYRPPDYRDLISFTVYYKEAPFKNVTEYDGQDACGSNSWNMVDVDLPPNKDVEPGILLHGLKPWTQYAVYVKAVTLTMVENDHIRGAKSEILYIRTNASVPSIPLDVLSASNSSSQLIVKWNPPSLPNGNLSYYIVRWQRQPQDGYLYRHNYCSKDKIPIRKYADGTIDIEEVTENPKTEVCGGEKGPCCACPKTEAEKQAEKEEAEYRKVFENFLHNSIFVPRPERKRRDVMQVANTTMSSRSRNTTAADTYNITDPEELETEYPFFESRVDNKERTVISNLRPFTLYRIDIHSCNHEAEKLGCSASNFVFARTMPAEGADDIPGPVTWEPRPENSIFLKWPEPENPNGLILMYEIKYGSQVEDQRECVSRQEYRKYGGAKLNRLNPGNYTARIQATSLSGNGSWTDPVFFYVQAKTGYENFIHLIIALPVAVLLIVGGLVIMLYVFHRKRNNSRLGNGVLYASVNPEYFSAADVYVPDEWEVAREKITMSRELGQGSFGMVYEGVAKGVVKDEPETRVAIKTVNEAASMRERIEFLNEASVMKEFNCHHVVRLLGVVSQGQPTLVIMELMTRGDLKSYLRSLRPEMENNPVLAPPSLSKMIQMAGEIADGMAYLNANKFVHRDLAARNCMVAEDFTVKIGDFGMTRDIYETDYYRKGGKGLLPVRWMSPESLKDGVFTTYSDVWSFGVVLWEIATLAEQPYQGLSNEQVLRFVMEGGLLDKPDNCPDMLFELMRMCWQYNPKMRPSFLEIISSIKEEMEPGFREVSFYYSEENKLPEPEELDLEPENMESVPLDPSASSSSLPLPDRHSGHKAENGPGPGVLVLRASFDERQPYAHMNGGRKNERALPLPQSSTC
Particulars: read-out: Inhibitory effect (%) IGF1R. As to the method:
as §1

T11 sequence (Q06187 whole entry): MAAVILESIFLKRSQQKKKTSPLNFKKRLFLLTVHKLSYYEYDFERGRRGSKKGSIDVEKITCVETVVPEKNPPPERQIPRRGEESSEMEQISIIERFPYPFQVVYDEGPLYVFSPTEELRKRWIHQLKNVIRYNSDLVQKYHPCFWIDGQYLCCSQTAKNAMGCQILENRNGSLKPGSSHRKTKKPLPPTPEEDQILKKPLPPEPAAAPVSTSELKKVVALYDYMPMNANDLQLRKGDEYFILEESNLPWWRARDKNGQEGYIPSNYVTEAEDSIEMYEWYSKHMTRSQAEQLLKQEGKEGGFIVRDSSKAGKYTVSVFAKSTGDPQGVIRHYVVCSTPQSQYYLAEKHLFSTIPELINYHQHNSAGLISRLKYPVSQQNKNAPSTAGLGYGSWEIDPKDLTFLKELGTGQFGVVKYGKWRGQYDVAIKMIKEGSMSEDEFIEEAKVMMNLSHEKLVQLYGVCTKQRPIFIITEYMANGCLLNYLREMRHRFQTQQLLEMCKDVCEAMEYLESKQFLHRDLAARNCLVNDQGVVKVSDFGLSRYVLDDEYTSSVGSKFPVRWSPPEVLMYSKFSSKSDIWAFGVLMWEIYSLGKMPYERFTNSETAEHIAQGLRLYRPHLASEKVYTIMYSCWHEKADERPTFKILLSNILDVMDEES
T10 sequence (P49841 whole entry): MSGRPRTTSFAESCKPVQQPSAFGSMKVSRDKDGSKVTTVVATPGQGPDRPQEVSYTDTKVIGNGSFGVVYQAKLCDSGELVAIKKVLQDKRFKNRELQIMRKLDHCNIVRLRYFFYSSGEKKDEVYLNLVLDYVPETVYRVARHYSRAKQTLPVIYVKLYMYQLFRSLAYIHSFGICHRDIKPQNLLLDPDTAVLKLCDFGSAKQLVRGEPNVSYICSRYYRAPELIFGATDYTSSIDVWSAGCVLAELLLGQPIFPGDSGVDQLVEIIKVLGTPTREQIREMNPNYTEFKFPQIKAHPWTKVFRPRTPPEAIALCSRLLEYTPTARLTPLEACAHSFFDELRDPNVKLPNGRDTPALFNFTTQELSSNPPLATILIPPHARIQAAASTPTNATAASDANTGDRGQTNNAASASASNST
T4 sequence (P50750 whole entry): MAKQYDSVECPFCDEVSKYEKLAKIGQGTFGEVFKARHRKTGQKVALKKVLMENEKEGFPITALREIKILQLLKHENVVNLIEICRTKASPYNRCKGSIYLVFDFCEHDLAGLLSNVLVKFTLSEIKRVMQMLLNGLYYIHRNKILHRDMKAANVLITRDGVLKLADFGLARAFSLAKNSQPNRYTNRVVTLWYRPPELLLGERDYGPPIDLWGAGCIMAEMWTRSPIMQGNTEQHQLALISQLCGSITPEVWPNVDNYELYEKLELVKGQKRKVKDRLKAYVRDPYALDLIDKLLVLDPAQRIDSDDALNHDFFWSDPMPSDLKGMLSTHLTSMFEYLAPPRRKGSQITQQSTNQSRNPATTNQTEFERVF
T4 sequence (O60563 whole entry partner): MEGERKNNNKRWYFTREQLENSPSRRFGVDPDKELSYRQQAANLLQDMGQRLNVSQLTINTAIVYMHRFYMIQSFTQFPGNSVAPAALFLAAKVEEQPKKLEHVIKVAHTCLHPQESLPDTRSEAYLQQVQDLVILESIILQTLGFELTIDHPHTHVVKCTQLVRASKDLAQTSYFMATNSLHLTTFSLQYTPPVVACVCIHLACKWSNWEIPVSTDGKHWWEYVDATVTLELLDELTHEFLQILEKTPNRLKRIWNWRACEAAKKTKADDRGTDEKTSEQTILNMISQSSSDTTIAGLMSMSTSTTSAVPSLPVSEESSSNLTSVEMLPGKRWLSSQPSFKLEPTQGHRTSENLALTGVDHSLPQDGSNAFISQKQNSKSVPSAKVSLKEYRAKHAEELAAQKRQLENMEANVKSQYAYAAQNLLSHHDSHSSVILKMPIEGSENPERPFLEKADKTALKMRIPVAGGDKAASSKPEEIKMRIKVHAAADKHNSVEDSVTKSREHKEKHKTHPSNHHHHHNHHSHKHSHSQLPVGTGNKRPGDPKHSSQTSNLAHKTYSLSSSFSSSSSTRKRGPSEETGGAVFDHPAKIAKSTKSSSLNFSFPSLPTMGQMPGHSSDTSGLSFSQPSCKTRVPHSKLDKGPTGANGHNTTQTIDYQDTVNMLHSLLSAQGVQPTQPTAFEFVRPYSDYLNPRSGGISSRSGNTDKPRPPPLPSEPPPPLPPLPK

In the case of `c1ccc2c(-c3cnn4cc(-c5ccc(N6CCNCC6)cc5)cnc34)ccnc2c1` [LDN-193189, reference compound], the inhibition at 0.1 µM at MAPK9 is -21.3%; at KDR, -6.35%; on JAK2, 5.83%; at CDK9_cyclinT1, -26.7%; at DNAPK, -29.6%; at MAPKAPK2, 0.06%. The inhibition at 0.1 µM on EGFR was 2.46%; on MAP3K5, 6.9%; on PAK2, -2.66%; on GSK3B, -28.2%; on BTK it was -12.4%; at IGF1R, 8.78%.

For `CN1CCc2cccc(c2)Nc2nccc(n2)N2CCCc3cc(ccc32)C1` [OD16], the inhibition at 0.1 µM at MAPK9 is -11%; at KDR it was 0.8%; on JAK2, 50.2%; on CDK9_cyclinT1, 54.2%; on DNAPK, -8.88%; at MAPKAPK2 it was -14.6%. Moreover, the inhibition at 0.1 µM was -13% on EGFR; -11.3% on MAP3K5; -27.1% on PAK2; 1.33% at GSK3B; -12% on BTK; -39.5% on IGF1R.

For the compound `CN1CCC(=O)NCCNc2ccn3ncc(c3n2)-c2cccc(c2)C1` [OD29], the inhibition at 0.1 µM on MAPK9 was 5.44%; on KDR, 37.6%; at JAK2, 14.4%; on CDK9_cyclinT1, -2.77%; on DNAPK, 12.9%; at MAPKAPK2, -4.8%. Further, the inhibition at 0.1 µM was -8.91% on EGFR; 0.68% at MAP3K5; 7.91% on PAK2; 3.34% at GSK3B; 7.22% on BTK; 13.9% at IGF1R.
